Assay results reported in patent US11780826B2 (Amgen Inc., priority 2017, dated 2023).

System: Bovine cardiac myofibrils
Assay: In vitro model of dose-dependent myofibril ATPase modulation (AC1.4, pyruvate kinase/lactate dehydrogenase-coupled ATPase assay at pCa25)
Type: biochemical
Conditions: concentration at which ATPase activity was 1.4-fold higher than the bottom of the dose curve, mean of a minimum of two independent tests
Outline: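 Compound dilutions were premixed with myofibrils, coupling enzymes, EGTA and CaCl2, then the reaction was started with an equal volume carrying ATP (final 1 mM), NADH and PEP. ATP turnover was followed at 340 nm, and dose responses were fit to a four-parameter equation.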

SMILES | AC1.4 [µM]
CS(=O)(=O)c1cccc(C(=O)N2[C@@H](C(=O)N[C@@H](c3ccc(C(F)(F)F)c(F)c3)C3CC3)C[C@H]3C[C@H]32)c1 [Example 307, (1R,3R,5R)-N-((R)-cyclopropyl(3-fluoro-4-(trifluoromethyl)phenyl)methyl)-2-(3-(methylsulfonyl)benzoyl)-2-azabicyclo[3.1.0]hexane-3-carboxamide] | 0.8008
CS(=O)(=O)c1cccc(C(=O)N2[C@@H](C(=O)N[C@@H](c3cc(F)c(Cl)cc3F)C3COC3)C[C@H]3C[C@H]32)c1 [Example 74, (1R,3R,5R)-N-((R)-(4-chloro-2,5-difluorophenyl)(3-oxetanyl)methyl)-2-(3-(methylsulfonyl)benzoyl)-2-azabicyclo[3.1.0]hexane-3-carboxamide] | 0.09935
CCc1ccnc(C(=O)N2[C@@H](C(=O)N[C@@H](c3ccc(C(F)(F)F)cc3F)C3COC3)C[C@H]3C[C@H]32)c1 [Example 786, (1R,3R,5R)-2-((4-ethyl-2-pyridinyl)carbonyl)-N-((R)-(2-fluoro-4-(trifluoromethyl)phenyl)(3-oxetanyl)methyl)-2-azabicyclo[3.1.0]hexane-3-carboxamide] | 8.9175
O=C(N[C@@H](c1cc(F)c(Cl)cc1F)C1COC1)[C@H]1C[C@@H](O)CN1C(=O)c1cncc(C(F)(F)F)c1 [Example 638, (4R)-N-((R)-(4-chloro-2,5-difluorophenyl)(3-oxetanyl)methyl)-4-hydroxy-1-((5-(trifluoromethyl)-3-pyridinyl)carbonyl)-D-prolinamide] | 4.1835
CS(=O)(=O)c1cncc(C(=O)N2CCCC[C@@H]2C(=O)N[C@@H](c2cc(F)c(Cl)cc2F)C2CC2)c1 [Example 292, (2R)-N-((R)-(4-chloro-2,5-difluorophenyl)(cyclopropyl)methyl)-1-((5-(methylsulfonyl)-3-pyridinyl)carbonyl)-2-piperidinecarboxamide] | 0.7577
O=C(N[C@@H](c1ccc(C(F)(F)F)cc1F)C1CC1)[C@H]1CCCN1C(=O)c1cccc(C2CCC2)c1 [Example 530, 1-(3-cyclobutylbenzoyl)-N-((R)-cyclopropyl(2-fluoro-4-(trifluoromethyl)phenyl)methyl)-D-prolinamide] | 2.614
CC1(O)CC([C@@H](NC(=O)[C@H]2C[C@H]3C[C@H]3N2C(=O)c2cccc(S(C)(=O)=O)c2)c2cc(F)c(C(F)(F)F)cc2F)C1 (stereo partly drawn) [Example 829, (1R,3R,5R)-N-((R)-(2,5-difluoro-4-(trifluoromethyl)phenyl)(3-hydroxy-3-methylcyclobutyl)methyl)-2-(3-(methylsulfonyl)benzoyl)-2-azabicyclo[3.1.0]hexane-3-carboxamide] | 1.702
CCS(=O)(=O)c1cccc(C(=O)N2[C@@H](C(=O)N[C@@H](c3cc(F)c(Cl)cc3F)[C@H](C)O)C[C@H]3C[C@H]32)c1 [Example 395, (1R,3R,5R)-N-((1S,2S)-1-(4-chloro-2,5-difluorophenyl)-2-hydroxypropyl)-2-(3-(ethylsulfonyl)benzoyl)-2-azabicyclo[3.1.0]hexane-3-carboxamide] | 1.361
CCNc1ccc(S(C)(=O)=O)cc1C(=O)N1CCC[C@@H]1C(=O)N[C@@H](c1ccc(C(F)(F)F)cc1F)C1CC1 [Example 79, N-((R)-cyclopropyl(2-fluoro-4-(trifluoromethyl)phenyl)methyl)-1-(2-(ethylamino)-5-(methylsulfonyl)benzoyl)-D-prolinamide] | 0.104
CS(=O)(=O)c1ccc(NCCO)c(C(=O)N2CCC[C@@H]2C(=O)N[C@@H](c2ccc(C(F)(F)F)cc2F)C2CC2)c1 [Example 154, N-((R)-cyclopropyl(2-fluoro-4-(trifluoromethyl)phenyl)methyl)-1-(2-((2-hydroxyethyl)amino)-5-(methylsulfonyl)benzoyl)-D-prolinamide] | 0.2715
Cc1ccc(C(=O)N2[C@@H](C(=O)N[C@@H](c3ccc(C(F)(F)F)cc3F)C3COC3)C[C@H]3C[C@H]32)cc1S(C)(=O)=O [Example 727, (1R,3R,5R)-N-((R)-(2-fluoro-4-(trifluoromethyl)phenyl)(3-oxetanyl)methyl)-2-(4-methyl-3-(methylsulfonyl)benzoyl)-2-azabicyclo[3.1.0]hexane-3-carboxamide] | 6.61

Now from value to molecule:

AC1.4 [µM] | SMILES
1.3405 | COC[C@H](NC(=O)[C@H]1CCCN1C(=O)[C@H]1CCCN(S(=O)(=O)N2CC(C#N)C2)C1)c1cccc(C(F)(F)F)c1 [Example 388, 1-(((3S)-1-((3-cyano-1-azetidinyl)sulfonyl)-3-piperidinyl)carbonyl)-N-((1R)-2-methoxy-1-(3-(trifluoromethyl)phenyl)ethyl)-D-prolinamide,1-(((3S)-1-((3-cyano-1-azetidinyl)sulfonyl)-3-piperidinyl)carbonyl)-N-((1S)-2-methoxy-1-(3-(trifluoromethyl)phenyl)ethyl)-D-prolinamide]
2.433 | N#CC1CN(S(=O)(=O)N2CCCC(F)(C(=O)N3CCC[C@@H]3C(=O)NCc3ccc(C(F)(F)F)cc3)C2)C1 (stereo partly drawn) [Example 514, (2R)-1-(1-((3-cyanoazetidin-1-yl)sulfonyl)-3-fluoropiperidine-3-carbonyl)-N-(4-(trifluoromethyl)benzyl)pyrrolidine-2-carboxamide]
1.5305 | N#CC1CN(S(=O)(=O)N2CCC[C@H](C(=O)N3CCC[C@@H]3C(=O)NCc3cccc(F)c3Cl)C2)C1 [Example 418, N-(2-chloro-3-fluorobenzyl)-1-(((3S)-1-((3-cyano-1-azetidinyl)sulfonyl)-3-piperidinyl)carbonyl)-D-prolinamide]
0.01635 | CC[C@@H](NC(=O)[C@H]1CCCN1C(=O)[C@H]1CCCN(S(=O)(=O)N2CC(C#N)C2)C1)c1ccc(C(F)(F)F)cc1F [Example 4, 1-(((3S)-1-((3-cyano-1-azetidinyl)sulfonyl)-3-piperidinyl)carbonyl)-N-((1R)-1-(2-fluoro-4-(trifluoromethyl)phenyl)propyl)-D-prolinamide]
1.268 | Cc1cc(F)ccc1CNC(=O)[C@H]1CCCN1C(=O)[C@H]1CCCN(S(=O)(=O)N2CC(C#N)C2)C1 [Example 381, 1-(((3S)-1-((3-cyano-1-azetidinyl)sulfonyl)-3-piperidinyl)carbonyl)-N-(4-fluoro-2-methylbenzyl)-D-prolinamide]
0.2616 | O=C(NCc1ccc(C(F)(F)F)cc1F)[C@H]1CCCN1C(=O)[C@H]1CCCN(S(=O)(=O)N2CC(n3ccnn3)C2)C1 [Example 151, N-(2-fluoro-4-(trifluoromethyl)benzyl)-1-(((3S)-1-((3-(1H-l,2,3-triazol-1-yl)-1-azetidinyl)sulfonyl)-3-piperidinyl)carbonyl)-D-prolinamide]
3.1845 | Cc1ccccc1CNC(=O)[C@H]1CCCN1C(=O)[C@H]1CCCN(S(=O)(=O)N2CC(C#N)C2)C1 [Example 571, 1-(((3S)-1-((3-cyano-1-azetidinyl)sulfonyl)-3-piperidinyl)carbonyl)-N-(2-methylbenzyl)-D-prolinamide]
0.4338 | N#CC1CN(S(=O)(=O)N2CCC[C@H](C(=O)N3CCC[C@@H]3C(=O)NCc3cccc(Cl)c3Cl)C2)C1 [Example 206, 1-(((3S)-1-((3-cyano-1-azetidinyl)sulfonyl)-3-piperidinyl)carbonyl)-N-(2,3-dichlorobenzyl)-D-prolinamide]
0.8013 | N#CC1CN(S(=O)(=O)c2cccc(C(=O)N3CCC[C@@H]3C(=O)N[C@@H](CO)c3ccc(Cl)cc3)c2)C1 [Example 305, N-((1R)-1-(4-chlorophenyl)-2-hydroxyethyl)-1-(3-((3-cyano-1-azetidinyl)sulfonyl)benzoyl)-D-prolinamide]
0.07385 | N#CC1CN(S(=O)(=O)N2CCC[C@H](C(=O)N3CCC[C@@H]3C(=O)NCc3ccc(C(F)(F)F)cc3Cl)C2)C1 [Example 63, N-(2-chloro-4-(trifluoromethyl)benzyl)-1-(((3S)-1-((3-cyano-1-azetidinyl)sulfonyl)-3-piperidinyl)carbonyl)-D-prolinamide]
0.8085 | N#CC1CN(S(=O)(=O)N2CCC[C@H](C(=O)N3CCC[C@@H]3C(=O)N[C@@H](c3ccc(Cl)cc3)C(F)(F)F)C2)C1 [Example 308, N-((1S)-1-(4-chlorophenyl)-2,2,2-trifluoroethyl)-1-(((3S)-1-((3-cyano-1-azetidinyl)sulfonyl)-3-piperidinyl)carbonyl)-D-prolinamide]
1.257 | O=C(NCc1ccc(C(F)(F)F)cc1)[C@H]1CCCN1C(=O)[C@H]1CCCN(S(=O)(=O)N2CC(C(F)(F)F)C2)C1 [Example 380, 1-(((3S)-1-((3-(trifluoromethyl)-1-azetidinyl)sulfonyl)-3-piperidinyl)carbonyl)-N-(4-(trifluoromethyl)benzyl)-D-prolinamide]
1.877 | C[C@H](C(=O)NCc1cccc(C(F)(F)F)c1)N(C)C(=O)c1cccc(S(=O)(=O)N2CC(C#N)C2)c1 [Example 455, 3-((3-cyano-1-azetidinyl)sulfonyl)-N-methyl-N-((1R)-1-methyl-2-oxo-2-((3-(trifluoromethyl)benzyl)amino)ethyl)benzamide]
0.7542 | N#CC1CN(S(=O)(=O)N2CCN[C@H](C(=O)N3CCC[C@@H]3C(=O)NCc3ccc(Cl)cc3F)C2)C1 [Example 290, N-(4-chloro-2-fluorobenzyl)-1-(((2S)-4-((3-cyano-1-azetidinyl)sulfonyl)-2-piperazinyl)carbonyl)-D-prolinamide]
1.9855 | CC[C@H](NC(=O)[C@H]1CCCN1C(=O)[C@H]1CCCN(S(=O)(=O)N2CC(C#N)C2)C1)c1cc(F)cc(F)c1 [Example 468, 1-(((3S)-1-((3-cyano-1-azetidinyl)sulfonyl)-3-piperidinyl)carbonyl)-N-((1S)-1-(3,5-difluorophenyl)propyl)-D-prolinamide]
